Laboratory results as given in patent US20220265759A1, “COMPOSITION AND METHOD FOR PROMOTING WOUND HEALING” (THE BOARD OF TRUSTEES OF THE UNIVERSITY OF ILLIOIS, priority 2019, published 2022).
Square brackets hold non-standard residues; d marks the D form. Ends that are not written are not given here. Peptide text beside a SMILES is read from it. * marks the point of attachment. d2Nal = N[C@H](Cc1ccc2ccccc2c1)C(=O)O; Myristoyl = CCCCCCCCCCCCCC(=O)*; Aib = CC(C)(N)C(=O)O

Experiments:
CCR10-eNOS interaction [1] = target: T1, CCR10-eNOS interaction (Homo sapiens, UniProt P46092); assay: Co-IP of CCR10-eNOS interaction in HUVECs stimulated with A23187; format: cell-based; details: endothelial cells (HUVECs), pretreatment 50 μM, 5 μM A23187 for 5 minutes, vs control peptide
T1 construct: host or cells: HUVEC (primary human umbilical vein endothelial cells)
T1 sequence (P46092 1-362): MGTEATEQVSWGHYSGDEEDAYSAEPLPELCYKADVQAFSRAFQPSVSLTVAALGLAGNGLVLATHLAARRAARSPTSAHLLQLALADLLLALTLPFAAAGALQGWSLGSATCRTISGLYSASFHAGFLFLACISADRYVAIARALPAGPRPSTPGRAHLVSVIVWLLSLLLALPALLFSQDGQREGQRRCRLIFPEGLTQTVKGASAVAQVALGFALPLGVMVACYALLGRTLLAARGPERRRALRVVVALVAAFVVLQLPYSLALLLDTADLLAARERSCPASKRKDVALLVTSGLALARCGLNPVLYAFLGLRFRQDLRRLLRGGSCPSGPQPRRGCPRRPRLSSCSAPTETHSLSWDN
Experimental: Immunoblot and Co-Immunoprecipitation (Co-IP). After serum starvation, inhibitors were added 45 minutes prior to stimulation for indicated times at 37° C., and cells were then collected and lysed for western blot analysis. After probing for p-eNOS (Ser1177), p-p85 (Tyr458), p-Src (Tyr 416), and p-ERK (T202/Y204), the same blots were stripped and re-probed for total proteins mentioned above. For detection of CCL28-induced protein levels of β-catenin and Bcl-2, near-confluent endothelial cells were incubated with 500 ng/ml CCL28 for 24 hours in EGM-2 medium containing 1% FBS.
(§1) Co-IP Experiments, cells or mouse wounds were collected after treatment, and lysed in 2% ODG in Tris buffer. The homogenates were further prepared for Co-IP experiments as described in the art (Chen, et al. (2018) Mol. Biol. Cell 29(10):1190-1202; Chen, et al. (2020) FASEB J. 34(4):5838-5850; Chen, et al. (2015) Ann. Rheum. Dis. 74:1898-1906).
Therefore, the effect of inhibition of CCR10-eNOS interaction was investigated using a panel of cell-permeable peptides based on the sequence of the predicted interaction domain on eNOS. Similar peptides have been described in determining the solution structure of calmodulin bound to the target peptide of eNOS (Piazza, et al. (2014) Biochemistry 53(8):1241-9; Piazza, et al. (2016) Biochemistry 55(42):5962-71). First, myristoylated 20 amino acid peptide (491-[…]-510 (P1); SEQ ID NO:61) was synthesized based on the sequence of human eNOS (which is conserved in mouse eNOS). […] It was subsequently determined whether truncated versions of the CBD-derived peptide would have the same effect.

HUVECs = assay: Endothelial cell tube formation induced by CCL28; format: cell-based, human; details: induced by 500 ng/ml CCL28
Experimental: Endothelial Cell Tube Formation. HUVECs were transfected with eNOS (50 nM), CCR10 (100 nM), or scrambled control (100 nM) siRNA and, after 48 hours, the cells were transferred to 96-well plates preloaded with extracellular matrix sold under the tradename […]®. To examine the CCL28 signaling pathways, HUVECs were pre-incubated with vehicle or specific inhibitors and then stimulated with or without CCL28 as described previously (Chen, et al. (2015) Ann. Rheum. Dis. 74:1898-1906).
The role of CCL28/CCR10 signaling pathways was further investigated in angiogenesis. Pretreatment of cells with 10 μM wortmannin (PI3K inhibitor), 5 μM U0126 (MAPK/ERK inhibitor), 1 mM L-NAME (eNOS inhibitor), 10 μM PP2 (Src kinase inhibitor), and 10 μM STO-609 ([…]) reduced endothelial cell tube formation induced by 500 ng/ml CCL28. […] In addition, CCL28 stimulation of endothelial cells for 24 hours enhanced expression levels of cell adhesion protein […] and anti-apoptotic protein B-cell leukemia/lymphoma-2 (Bcl-2), supporting the proliferation potential of endothelial cells in response to stimulation with CCL28.

CCR10-eNOS interaction [2] = target: T1, CCR10-eNOS interaction; assay: Ligand-induced CCR10-eNOS interaction in HUVEC (Co-IP, confocal co-localization); format: cell-based
Experimental: as §1
Confocal Microscopy. For cellular immunostaining, confluent monolayers of cells grown on coverslips were prepared as described previously (Chen, et al. (2012) Mel. Biol. Cell 23(7):1388-1398). Fluorescent images were obtained using a Zeiss LSM 880 confocal microscope. The co-localization coefficient in specified regions of interest (ROI) were determined using Zeiss Zen software. Briefly, using the Overlay tool, the desired ROI was drawn along the cell edge and the values for the ROIs tabulated. The scatterplot and table were automatically adjusted to the pixel distribution for the selected ROI. The data from different treatment groups were collected and analyzed for statistical significance as described previously (Chen, et al. (2020) FASEB J. 34(4):5838-5850).
To investigate whether CCR10 interacts directly with eNOS, primary culture HUVEC were collected and prepared for co-immunoprecipitation (Co-IP) to assess CCR10-eNOS interaction following stimulation with 5 μM A23187. […] Similar results were obtained in endothelial cells following stimulation with 500 ng/ml human recombinant CCL28. CCR10-eNOS interaction was further supported by confocal microscopy and high-resolution imaging. Upon stimulation with A23187 or CCL28 for 5 minutes, CCR10 co-localized to a greater extent with eNOS on the plasma membrane. Co-localization coefficient in the regions of interest (ROI) in the plasma membrane were quantified from Zeiss LSM 880 confocal microscope images using Zeiss Zen software.

[3] = cited from earlier work

For “myr-VANAVKISASLM (Myristoyl-VANAVKISASLM) [Peptide P3]”, the “CCR10-eNOS interaction (Co-IP)” value (CCR10-eNOS interaction [1]) was “completely blocked”.
With `COC(=O)[C@@H](N)CCCNC(=N)N[N+](=O)[O-]` [L-NAME, N^G-nitro-L-arginine methyl ester] the “endothelial cell tube formation” value (HUVECs; pretreatment 1 mM) was “reduced”.
For “myr-FKEVANAVKISASLM (Myristoyl-FKEVANAVKISASLM) [Peptide P2]”, the “CCR10-eNOS interaction (Co-IP)” value (CCR10-eNOS interaction [1]) was “completely blocked”.
In the case of “myr-TRKKTFKEVANAVKISASLM (Myristoyl-TRKKTFKEVANAVKISASLM) [Peptide P1]”, the “CCR10-eNOS interaction (Co-IP)” value (CCR10-eNOS interaction [1]) is reported as “completely blocked” and the “CCR10-eNOS interaction (Co-IP)” value (CCR10-eNOS interaction [1]; listed as Myr-CBD20) is reported as “significantly reduced”.
For `CNc1ccc2oc(C[C@H]3O[C@@]4(CC[C@H]3C)O[C@H]([C@H](C)C(=O)c3ccc[nH]3)[C@H](C)C[C@H]4C)nc2c1C(=O)O` [Peptide A23187], the “binding of CCR10 to eNOS (Co-IP)” value (CCR10-eNOS interaction [2]; HUVEC, 5 μM) was “Enhanced”, the “time of maximum CCR10-eNOS binding” value (CCR10-eNOS interaction [2]; HUVEC, 5 μM) was 5 minutes and the “Co-localization coefficient of CCR10 and eNOS” value (CCR10-eNOS interaction [2]; plasma membrane ROI, stimulation for 5 minutes, untreated control cells 43%) was 81%.
For albiglutide, the half-life ([3]; in humans) is listed as 140 to 170 h.
For `O=C(O)c1ccc2c3c1cccc3c(=O)n1c3ccccc3nc21` [STO-609], the “endothelial cell tube formation” value (HUVECs; pretreatment 10 μM) was “reduced”.
For peginesatide, the elimination half-life ([3]; in healthy volunteers) is listed as 18.9 h.
For `CC(C)(N)C(=O)N[C@@H](Cc1c[nH]cn1)C(=O)N[C@H](Cc1ccc2ccccc2c1)C(=O)N[C@H](Cc1ccccc1)C(=O)N[C@@H](CCCCN)C(N)=O` [Ipamorelin] (H-[Aib]H[d2Nal][dF]K-NH2), the terminal half-life ([3]; in humans) is listed as “about 2 hours”.
For `N#CC(=C(/N)Sc1ccccc1N)/C(C#N)=C(\N)Sc1ccccc1N` [Peptide U0126], the “endothelial cell tube formation” value (HUVECs; pretreatment 5 μM) was “reduced”.
For `NC(=O)CC[C@@H]1NC(=O)[C@H](Cc2ccccc2)NC(=O)[C@H](Cc2ccc(O)cc2)NC(=O)[C@@H](N)CSSC[C@@H](C(=O)N2CCC[C@H]2C(=O)N[C@@H](CCCN=C(N)N)C(=O)NCC(N)=O)NC(=O)[C@H](CC(N)=O)NC1=O` [vasopressin], the half-life ([3]; in humans) is listed as 0.167 to 0.583 h.
